Reference: patent US20050209157A1, “Short bioactive peptides and methods for their use” (priority 2001, published 2005)
No end group written: not given here.

Tests used:
[1] = test system: yeast (Saccharomyces cerevisiae); assay: Antimicrobial assay I, yeast assay in RPMI 1640; assay type: cell-based; conditions: RPMI 1640 media
Description: (§1) The data for the following antimicrobial assay of the peptides have been obtained by making OD measurements in in vitro cell culture experiments with and without added peptide. The protocol used is as follows.
(§2) Absorbance was read at 620 nm after shaking to resuspend cells.
The yeast assay was performed in RPMI 1640 media (pH 7.0 at 25° C.).
(§3) Staph6538 is Staphylococcus aureus ATCC accession number 6538; paerug9027 is Pseudomonas aeruginosa ATCC accession number 9027, yeast is Saccharomyces cerevisiae.

[2] = test system: Staphylococcus aureus ATCC 6538; assay: Antimicrobial assay I, MIC by OD measurement; assay type: cell-based; conditions: 37° C. for 24 hours, absorbance 620 nm
Source text: as §1
(§4) Cell lines included Staphylococcus aureus ATCC 6538 or 25923, Pseudomonas aeruginosa ATCC 9027 or 27853. Medium used were Antibiotic Medium 3 (Difco), Antibiotic Medium 2 (Difco), and 0.85% saline. Controls used were physiological saline, and gentamycin at 50, 25, 10, 5, 1, and 0.1 ppm.
as §2, §3

[3] = test system: Pseudomonas aeruginosa ATCC 9027; assay: Antimicrobial assay I, MIC by OD measurement; assay type: cell-based; conditions: 37° C. for 24 hours, absorbance 620 nm
Source text: as §1, §4, §2, §3

in vitro [4] = assay type: cell-based, human; conditions: human, human red blood cells, pH 7, hemolytic assay, concentration at 50% hemolysis, 1 hour at 37° C.; read-out: LD50
Description: This hemolytic assay is based upon that presented in Journal of Peptide Research 53: 82-90 (1999). […] All procedures were performed according to safety protocols pertaining to the handling and disposal of human body fluids.
Red blood cells (RBCs) were washed three times with PBS (35 mM phosphate buffer 0.15 M NaCl, pH 7.0). RBCs suspended in PBS (0.4% (v/v); about 10 ml per 15 peptides) were prepared. Suspensions (100 μl) were aliquoted to each sample and control tube. Serially diluted peptide solutions (100 μl) were pipetted into the sample tubes. Negative control tubes contained 100 μl PBS; positive control tubes contained 100 μl 1% Triton-X100 detergent. All tubes were incubated for 1 hour at 37° C. The tubes were removed from the incubator and centrifuged at 1000 g for 5 minutes. Supernatant (100 μl) was pipetted to a 96-well polyvinyl chloride plate. The absorbance at 414 nm (A414) was measured, and used to calculate the percent hemolysis according to the following formula. [formula]

WI38 = conditions: MTT, 24 hours with peptide; for WI38 LD50: normal fibroblast line; for LD50 WI38: WI38 normal lung fibroblast line
Description: (§6) Viability of cells is determined by the dye response. In the following procedure, approximately 1.5×10^4 cells per well were added and viability was determined with the cells in a semi-confluent state. The assay was performed in a 96-well microtiter plate. After addition of peptide, the plate was set for 24 hours. MTT (5 mg/ml in phenol red-free RPMI-1640, 20 μl) was added to each well including positive control wells untreated with peptide. The plate was incubated at 37° C. for 4 hours. The liquid contents of each well was removed, and isopropanol with 0.1 M HCl (100 μl) was added to each well. The plate was sealed with parafilm to prevent evaporation of the isopropanol. The plate is allowed to rest for 5-10 minutes in order to solubilize the precipitate. Purified water (100 μl) was added to each well. Absorbance was determined with an ELISA Reader instrument. Color intensity at 540 nm is proportional to viability of cells.
(§7) WI38 (ATCC No. CCL75) is a normal fibroblast line of lung diploid cells, MCF7 (ATCC No. HTB22) is a breast adenocarcinoma tumor cell line, SW480 (ATCC No. CCL228) is a colon adenocarcinoma tumor cell line, BMKC is a cloned melanoma line derived from Bowes melanoma line HMCB (ATCC No. CRL9607), H1299 (ATCC No. CRL5803) is a lung large cell carcinoma tumor line, HeLaS3 (ATCC No. CCL2.2) is a cervical epitheleal carcinoma tumor cell line, and PC3 (ATCC No. CRL1435) is a prostate adenocarcinoma tumor cell line.

in vitro [5] = conditions: human, WI38 normal lung fibroblast cells, 24 hours with peptide
Description: as §6, §7

PC3 = assay: Anti-cancer assay, MTT, LD50; assay type: cell-based; conditions: 24 hours with peptide, prostate adenocarcinoma
Source text: (§5) Numbers are LD50 values (μg/mL).

H1299 = assay: Anti-cancer assay, MTT, LD50; assay type: cell-based; conditions: 24 hours with peptide, lung large cell carcinoma
Source text: as §5

SW480 = assay: Anti-cancer assay, MTT, LD50; assay type: cell-based; conditions: SW480 colon adenocarcinoma line, 24 hours with peptide
Source text: as §5

HeLaS3 = assay: Anti-cancer assay, MTT, LD50; assay type: cell-based; conditions: 24 hours with peptide, cervical carcinoma
Source text: as §5

MCF7 = assay: Anti-cancer assay, MTT, LD50; assay type: cell-based; conditions: MCF7 breast adenocarcinoma line, MTT, 24 hours with peptide
Source text: as §5

BMKC = assay: Anti-cancer assay, MTT, LD50; assay type: cell-based; conditions: BMKC cloned melanoma line, 24 hours with peptide
Source text: as §5

[6] = LD50 WI38, WI38 normal lung fibroblast line, MTT

FALALKALKKALKKLKKALKKAL-OH [P1, reference compound]
yeast (MIC or MFC) [1]: > (> indicates greater than 200 μg/mL) | staph6538 (MIC) [2]: 5 µg/mL | paerug9027 (MIC) [3]: 10 µg/mL | HC50 at 1 h (in vitro [4]): 100 µg/mL

FALALKALKKAL-NH2 [P144, FALALKALKKAL-NH2]
yeast (MIC or MFC) [1]: 50 µg/mL | WI38 LD50 (WI38): 750 µg/mL | staph6538 (MIC) [2]: 5 µg/mL | paerug9027 (MIC) [3]: 50 µg/mL | CC50 at 24 h (in vitro [5]; [6]): 750 µg/mL | PC3 LD50 (PC3): 350 µg/mL | H1299 LD50 (H1299): 225 µg/mL | LD50 SW480 (SW480): 285 µg/mL | HeLaS3 LD50 (HeLaS3): 275 µg/mL | LD50 MCF7 (MCF7): 150 µg/mL | LD50 BMKC (BMKC): 250 µg/mL | HC50 at 1 h (in vitro [4]): 600 µg/mL

FAKKLAKKLKKLAKKLAK-NH2 [Shiva 10 (1-18) AM]
CC50 at 24 h (in vitro [5]; WI38 LD50, MTT, normal fibroblast line): 101 µg/mL | PC3 LD50 (PC3): 81 µg/mL | H1299 LD50 (H1299): 71 µg/mL | HeLaS3 LD50 (HeLaS3): 190 µg/mL | HC50 at 1 h (in vitro [4]): 900 µg/mL

ILPWKWPWWPWRR-COOH [P91, reference compound]
yeast (MIC or MFC) [1]: > (> indicates greater than 200 μg/mL) | staph6538 (MIC) [2]: 10 µg/mL | paerug9027 (MIC) [3]: > (> indicates greater than 200 μg/mL) | PC3 LD50 (PC3): 31 µg/mL | H1299 LD50 (H1299): 64 µg/mL | LD50 SW480 (SW480): 30 µg/mL | HeLaS3 LD50 (HeLaS3): 20 µg/mL | LD50 MCF7 (MCF7): 12 µg/mL | LD50 BMKC (BMKC): 180 µg/mL

KWKLFKKIGAVLKVL-NH2 [P53, reference compound]
yeast (MIC or MFC) [1]: 50 µg/mL | WI38 LD50 (WI38): 32 µg/mL | staph6538 (MIC) [2]: 5 µg/mL | paerug9027 (MIC) [3]: 15 µg/mL | CC50 at 24 h (in vitro [5]; [6]): 32 µg/mL | PC3 LD50 (PC3): 40 µg/mL | H1299 LD50 (H1299): 65 µg/mL | HeLaS3 LD50 (HeLaS3): 30 µg/mL | LD50 MCF7 (MCF7): 45 µg/mL | LD50 BMKC (BMKC): 40 µg/mL | HC50 at 1 h (in vitro [4]): 20 µg/mL

FALALKALKKLKKALKKAL-OH [P28]
WI38 LD50 (WI38): 101 µg/mL | CC50 at 24 h (in vitro [5]; [6]): 101 µg/mL | PC3 LD50 (PC3): 16 µg/mL | H1299 LD50 (H1299): 54 µg/mL | LD50 SW480 (SW480): 59 µg/mL | HeLaS3 LD50 (HeLaS3): 80 µg/mL | LD50 MCF7 (MCF7): 65 µg/mL | LD50 BMKC (BMKC): 93 µg/mL | HC50 at 1 h (in vitro [4]): 700 µg/mL

FAKKLAKKLKKLAKKLIGAVLKV-OH [P99]
yeast (MIC or MFC) [1]: > (> indicates greater than 200 μg/mL) | staph6538 (MIC) [2]: 100 µg/mL | paerug9027 (MIC) [3]: > (> indicates greater than 200 μg/mL) | HC50 at 1 h (in vitro [4]): 25 µg/mL

KLLKLLLKLYKKLLKLL-OH [P156]
yeast (MIC or MFC) [1]: > (> indicates greater than 200 μg/mL) | WI38 LD50 (WI38): 230 µg/mL | staph6538 (MIC) [2]: 15 µg/mL | paerug9027 (MIC) [3]: > (> indicates greater than 200 μg/mL) | CC50 at 24 h (in vitro [5]; [6]): 230 µg/mL | PC3 LD50 (PC3): 260 µg/mL | LD50 SW480 (SW480): 345 µg/mL | HeLaS3 LD50 (HeLaS3): > (> indicates greater than 1000) | LD50 MCF7 (MCF7): 135 µg/mL | LD50 BMKC (BMKC): 520 µg/mL | HC50 at 1 h (in vitro [4]): 10 µg/mL

FAFGKGIGKIGKKGL-NH2 [P138]
yeast (MIC or MFC) [1]: > (> indicates greater than 200 μg/mL) | WI38 LD50 (WI38): > (> indicates greater than 1000) | LD50 WI38 (WI38): > (> indicates greater than 1000) | staph6538 (MIC) [2]: > (> indicates greater than 200 μg/mL) | paerug9027 (MIC) [3]: > (> indicates greater than 200 μg/mL) | PC3 LD50 (PC3): > (> indicates greater than 1000) | H1299 LD50 (H1299): > (> indicates greater than 1000) | LD50 SW480 (SW480): > (> indicates greater than 1000) | HeLaS3 LD50 (HeLaS3): > (> indicates greater than 1000) | LD50 MCF7 (MCF7): > (> indicates greater than 1000) | LD50 BMKC (BMKC): > (> indicates greater than 1000) | HC50 at 1 h (in vitro [4]): 20 µg/mL

FALALKA-NH2 [P141, FALALKA-NH2]
yeast (MIC or MFC) [1]: 200 µg/mL | WI38 LD50 (WI38): 420 µg/mL | staph6538 (MIC) [2]: 15 µg/mL | paerug9027 (MIC) [3]: 50 µg/mL | CC50 at 24 h (in vitro [5]; [6]): 420 µg/mL | H1299 LD50 (H1299): > (> indicates greater than 1000) | LD50 SW480 (SW480): 560 µg/mL | HeLaS3 LD50 (HeLaS3): > (> indicates greater than 1000) | LD50 MCF7 (MCF7): 430 µg/mL | LD50 BMKC (BMKC): 465 µg/mL | HC50 at 1 h (in vitro [4]): 900 µg/mL

CC[C@H](C)[C@H](NC(=O)CN)C(=O)NCC(=O)N[C@@H](C)C(=O)N[C@H](C(=O)N[C@@H](CC(C)C)C(=O)N[C@@H](CCCCN)C(=O)N[C@H](C(=O)N[C@@H](CC(C)C)C(=O)N[C@H](C(=O)N[C@H](C(=O)NCC(=O)N[C@@H](CC(C)C)C(=O)N1CCC[C@H]1C(=O)N[C@@H](C)C(=O)N[C@@H](CC(C)C)C(=O)N[C@H](C(=O)N[C@@H](CO)C(=O)N[C@@H](Cc1c[nH]c2ccccc12)C(=O)N[C@H](C(=O)N[C@@H](CCCCN)C(=O)N[C@@H](CCCNC(=N)N)C(=O)N[C@@H](CCCCN)C(=O)N[C@@H](CCCNC(=N)N)C(=O)N[C@@H](CCC(N)=O)C(=O)N[C@@H](CCC(N)=O)C(N)=O)[C@@H](C)CC)[C@@H](C)CC)[C@@H](C)O)[C@@H](C)O)C(C)C)C(C)C [P108, reference compound]
yeast (MIC or MFC) [1]: 25 µg/mL | staph6538 (MIC) [2]: 5 µg/mL | paerug9027 (MIC) [3]: > (> indicates greater than 200 μg/mL)

FALLKL-NH2 [P168, FALLKL-NH2]
yeast (MIC or MFC) [1]: > (> indicates greater than 200 μg/mL) | WI38 LD50 (WI38): > (> indicates greater than 1000) | LD50 WI38 (WI38): > (> indicates greater than 1000) | staph6538 (MIC) [2]: 50 µg/mL | paerug9027 (MIC) [3]: 100 µg/mL | PC3 LD50 (PC3): > (> indicates greater than 1000) | H1299 LD50 (H1299): > (> indicates greater than 1000) | LD50 SW480 (SW480): > (> indicates greater than 1000) | HeLaS3 LD50 (HeLaS3): > (> indicates greater than 1000) | LD50 MCF7 (MCF7): 630 µg/mL | LD50 BMKC (BMKC): 590 µg/mL | HC50 at 1 h (in vitro [4]): 600 µg/mL

FKVKFKVKVK-NH2 [P303, reference compound]
WI38 LD50 (WI38): 355 µg/mL | CC50 at 24 h (in vitro [5]; [6]): 355 µg/mL | PC3 LD50 (PC3): 530 µg/mL | H1299 LD50 (H1299): 345 µg/mL | LD50 SW480 (SW480): 530 µg/mL | HeLaS3 LD50 (HeLaS3): > (> indicates greater than 1000) | LD50 MCF7 (MCF7): 315 µg/mL | LD50 BMKC (BMKC): 330 µg/mL | HC50 at 1 h (in vitro [4]): 500 µg/mL
